Experimental data reported in paper PMC10693969 (Parasites, Hosts and Diseases, 2023).
Read-outs that look alike come from different tables or passages of the source.

Columns and labels:
[1] = test system: Naegleria fowleri trophozoites (Carter NF69 strain, ATCC 30215); experiment: In vitro anti-N. fowleri activity, trophozoite viability; format: cell-based; settings: for SI, sensitivity index (CC50 C6 glial cells / IC50 N. fowleri): ratio CC50 C6 glial cells / IC50 N. fowleri; for antiamoebic activity against N. fowleri (in words): in vitro
[2] = test system: A. castellanii (ATCC-30868) trophozoites; experiment: In vitro anti-Acanthamoeba activity, A. castellanii trophozoite viability; format: cell-based; settings: for SI, sensitivity index (CC50 C6 glial cells / IC50 A. castellanii): ratio CC50 C6 glial cells / IC50 A. castellanii
[3] = test system: A. polyphaga (ATCC-30461) trophozoites; experiment: In vitro anti-Acanthamoeba activity, A. polyphaga trophozoite viability; format: cell-based; settings: for SI, sensitivity index (CC50 C6 glial cells / IC50 A. polyphaga): ratio CC50 C6 glial cells / IC50 A. polyphaga
[4] = Cytotoxicity against C6 glial cells; format: cell-based, rat; settings: rat, C6 glial cells
[5] = test system: C6 rat glial cells (ATCC CCL-107); experiment: Cytotoxicity against C6 glial cells; format: cell-based
[6] = test system: murine macrophages J774A.1; settings: cited from earlier work
[7] = test system: A. castellanii trophozoites; settings: cited from earlier work
[8] = Naegleria fowleri, ATCC30215, 48 h, read-out: N. fowleri (IC50 ±SD, μM), trophozoites, 0–400 μM, 37°C, 48 h, mean±SD of 3 independent experiments
[9] = Acanthamoeba castellanii, ATCC30868, 48 h, read-out: A. castellanii (IC50 ±SD, μM), trophozoites, 0–400 μM, 25°C, 48 h, mean±SD of 3 independent experiments
[10] = read-out: A. castellanii (IC50 ±SD), trophozoites, 0–400 μM, 25°C, 48 h, mean±SD of 3 independent experiments
[11] = Acanthamoeba polyphaga, ATCC30461, 48 h, read-out: A. polyphaga (IC50 ±SD, μM), trophozoites, 0–400 μM, 25°C, 48 h, mean±SD of 3 independent experiments
[12] = read-out: A. polyphaga (IC50 ±SD), trophozoites, 0–400 μM, 25°C, 48 h, mean±SD of 3 independent experiments
[13] = read-out: N. fowleri (IC50 ±SD), trophozoites, 0–400 μM, 37°C, 48 h, mean±SD of 3 independent experiments

Compound	IC50 [1, 8] [µM]	SI, sensitivity index (CC50 C6 glial cells / IC50 N. fowleri) [1]	antiamoebic activity against N. fowleri (in words) ([1]; trophozoites)	IC50 [2, 9] [µM]	SI, sensitivity index (CC50 C6 glial cells / IC50 A. castellanii) [2]	IC50 [2, 10] [µM]	IC50 [3, 11] [µM]	SI, sensitivity index (CC50 C6 glial cells / IC50 A. polyphaga) [3]	IC50 [3, 12] [µM]	CC50 [4] [µM]	cytotoxicity to C6 glial cells (in words) [5]	IC50 [1, 13] [µM]	toxicity to A. castellanii trophozoites (in words) [7]	also measured
O=c1cc(-c2ccc(O)cc2)oc2cc(O)cc(O)c12 [Apigenin, apigenin]	94.65 ± 0.58	2.57	did not show significative anti-N. fowleri activities	< 50	5.60	43.4 ± 0.8	< 50	8.58	28.33 ± 0.13	243.1 ± 0.98	did not show significative cytotoxicity	–	–	cytotoxicity against murine macrophages J774A.1 (in words) [6]: potential cytotoxicity
COc1ccc2c(c[n+](C)c3c4cc5c(cc4ccc23)OCO5)c1OC [Chelerythrine, chelerythrine chloride]	–	1.39	strong antiamoebic activity	–	–	–	–	–	–	16.4 ± 0.45	potent cytotoxicity	–	–	IC50 ([1]; Naegleria fowleri, ATCC30215, 48 h, read-out: N. fowleri (IC50 ±SD, μM)): 11.8 ± 1.15 µM; IC50 ([2]; Acanthamoeba castellanii, ATCC30868, 48 h, read-out: A. castellanii (IC50 ±SD, μM)): 148.1 ± 1.38 µM; antiamoebic activity against A. castellanii (in words) ([2]; trophozoites, in vitro): did not exhibit potential or selective antiamoebic activity; IC50 ([3]; Acanthamoeba polyphaga, ATCC30461, 48 h, read-out: A. polyphaga (IC50 ±SD, μM)): 102 ± 1.4 µM; antiamoebic activity against A. polyphaga (in words) ([3]; trophozoites, in vitro): did not exhibit potential or selective antiamoebic activity; cytotoxicity to C6 glial cells (in words) ([5]; listed as chelerythrine): strong toxicity
COc1cc(/C=C/C(O)=C/C(=O)/C=C/c2ccc(O)cc2)ccc1O [Demethoxycurcumin, demethoxycurcumin]	< 30	> 7	–	< 50	>8.19	36.1 ± 0.82	–	>13.48	21.93 ± 0.18	> 296	–	27.1 ± 0.35	toxic	SI, sensitivity index (CC50 C6 glial cells / IC50 N. fowleri) ([1]; listed as demethoxycurcumin): > 8; IC50 ([1]; read-out: N. fowleri (IC50 ±SD), trophozoites, 0–400 μM, 37°C, 48 h, mean±SD of 3 independent experiments, listed as demethoxycurcumin): < 40 µM; SI, sensitivity index (CC50 C6 glial cells / IC50 A. castellanii) ([2]; listed as demethoxycurcumin): > 8; IC50 ([2]; read-out: A. castellanii (IC50 ±SD), trophozoites, 0–400 μM, 25°C, 48 h, mean±SD of 3 independent experiments, listed as demethoxycurcumin): < 40 µM; SI, sensitivity index (CC50 C6 glial cells / IC50 A. polyphaga) ([3]; listed as demethoxycurcumin): > 8; IC50 ([3]; read-out: A. polyphaga (IC50 ±SD), trophozoites, 0–400 μM, 25°C, 48 h, mean±SD of 3 independent experiments, listed as demethoxycurcumin): < 40 µM
Oc1ccc(/C=C/c2cc(O)cc(O)c2)cc1 [Resveratrol, resveratrol]	47.19 ± 0.36	4.68	–	< 50	5.52	40.03 ± 0.39	< 50	7.04	31.35 ± 0.08	220.78 ± 0.09	–	–	toxic	–
silybin (A+B) mixture	–	4.13	–	–	4.08	24.5 ± 0.56	–	6.31	15.82 ± 0.06	–	–	24.2 ± 0.27	–	IC50 ([2]; read-out: A. castellanii (IC50 ±SD), trophozoites, 0–400 μM, 25°C, 48 h, mean±SD of 3 independent experiments, listed as silybin (A+B)): < 50 µM; IC50 ([3]; read-out: A. polyphaga (IC50 ±SD), trophozoites, 0–400 μM, 25°C, 48 h, mean±SD of 3 independent experiments, listed as silybin (A+B)): < 50 µM; CC50 ([5]; read-out: C6 glial cells (CC50 ±SD), C6 rat glial cells, 0–400 μM, mean±SD of 3 independent assays): 99.89 ± 0.78 µM
